From patent US20080009418A1, “Selective Inhibitors” (Alchemia LTD., priority 2004, published 2008)

How the values were obtained:
Settings in all cases: compound at 10 μM
[1] = molecular target: T1, Human melanin-concentrating hormone (MCH1) (Homo sapiens, UniProt Q99705); test: Radioligand binding, human melanin-concentrating hormone MCH1 membranes, FlashPlate, [125I]-S36057
T1 construct: purchased Perkin Elmer Biosignal
Summary of the method: (§1)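 Cloned human receptor membranes were coated onto FlashPlate wells and incubated with radioligand and compound (added from a 0.5 mM DMSO daughter plate) for 1 hour at room temperature in the dark. Scintillation counting gave percent inhibition, with DMSO defining total and reference ligand defining non-specific binding.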

[2] = molecular target: T2, Human neuropeptide Y (NPY-Y1) (Homo sapiens, UniProt P25929); test: Radioligand binding, human neuropeptide Y NPY-Y1 membranes, FlashPlate, [125I]-PYY
T2 construct: purchased Perkin Elmer Biosignal
T2 sequence (P25929 1-384): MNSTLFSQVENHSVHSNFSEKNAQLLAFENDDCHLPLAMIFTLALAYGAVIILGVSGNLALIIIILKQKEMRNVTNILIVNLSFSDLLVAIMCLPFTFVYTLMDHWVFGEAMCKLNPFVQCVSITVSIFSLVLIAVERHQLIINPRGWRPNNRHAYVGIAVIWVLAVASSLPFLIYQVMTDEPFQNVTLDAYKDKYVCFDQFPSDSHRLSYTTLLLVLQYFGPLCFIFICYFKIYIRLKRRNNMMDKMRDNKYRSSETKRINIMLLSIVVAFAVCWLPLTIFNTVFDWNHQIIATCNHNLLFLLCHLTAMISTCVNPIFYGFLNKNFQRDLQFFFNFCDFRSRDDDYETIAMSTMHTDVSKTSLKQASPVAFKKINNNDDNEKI
Summary of the method: as §1

Human κ-Opioid (KOP) = molecular target: T3, Human κ-Opioid (KOP) (Homo sapiens, UniProt P41145); test: Radioligand binding, human κ-opioid (KOP) membranes, filtration, [3H]-Diprenorphine
T3 construct: purchased Perkin Elmer Biosignal
Summary of the method: (§2)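 Percent inhibition of radioligand binding measured on recombinant human membranes: NK1 with [125I]-Substance P, KOP with [3H]-Diprenorphine. Incubation 1 h at room temperature, then harvest onto 0.3% PEI-soaked filters, cold Tris-HCl pH 7.4 washes and scintillation counting; non-specific binding from reference ligand wells.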

Human Melanocortin (MC4) = molecular target: T4, Human Melanocortin (MC4) (Homo sapiens, UniProt P32245); test: Radioligand binding, human melanocortin MC4 membranes, FlashPlate, [125I]-NDP-αMSH
T4 construct: purchased Perkin Elmer Biosignal
Summary of the method: as §1

Human opioid (ORL1) = molecular target: T5, Human opioid (ORL1) (Homo sapiens, UniProt P41146); test: Radioligand binding, human opioid ORL1 membranes, FlashPlate, [125I]-Nociceptin
T5 construct: purchased Perkin Elmer Biosignal
Summary of the method: as §1

Mouse urotensin (mUR2) = molecular target: T6, Mouse urotensin (mUR2) (Mus musculus, UniProt Q8VIH9); test: Radioligand binding, mouse urotensin mUR2 membranes, FlashPlate, [125I]-Urotensin II
T6 construct: purchased Perkin Elmer Biosignal
T6 sequence (Q8VIH9 1-385): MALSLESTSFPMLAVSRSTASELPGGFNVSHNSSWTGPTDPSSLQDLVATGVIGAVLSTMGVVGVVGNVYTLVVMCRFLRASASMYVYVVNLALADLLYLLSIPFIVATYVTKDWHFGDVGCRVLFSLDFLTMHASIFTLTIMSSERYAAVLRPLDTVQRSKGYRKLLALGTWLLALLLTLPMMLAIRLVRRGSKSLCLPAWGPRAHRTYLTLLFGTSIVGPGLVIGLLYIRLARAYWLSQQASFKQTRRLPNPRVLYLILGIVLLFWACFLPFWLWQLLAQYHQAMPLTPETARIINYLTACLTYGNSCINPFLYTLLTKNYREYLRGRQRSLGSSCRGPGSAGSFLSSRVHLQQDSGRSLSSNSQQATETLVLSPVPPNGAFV
Summary of the method: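 Cloned mouse urotensin (mUR2) receptor membranes from Perkin Elmer Biosignal were immobilized in FlashPlate microplates using a proprietary coating. Each well got 19.5 μl buffer, then 0.5 μl of DMSO, reference ligand, or compound. Adding 5 μl of [125I]-Urotensin II, diluted to 5× final concentration in binding buffer, started binding. Plates were sealed with TopSeal-A and incubated 1 hour at room temperature in the dark. Wells were counted for 30 seconds each on a TopCount after a 60-second delay, and percentage inhibition was calculated.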

Human μ-opioid (MOP) = molecular target: T7, Human μ-opioid (MOP) (Homo sapiens, UniProt P35372); test: Radioligand binding, human μ-opioid (MOP) membranes, FlashPlate, [3H]-Naloxone
T7 construct: purchased Perkin Elmer Biosignal
Summary of the method: as §1

Human Melanocortin (MC3) = molecular target: T8, Human Melanocortin (MC3) (Homo sapiens, UniProt P41968); test: Radioligand binding, human melanocortin MC3 membranes, FlashPlate, [125I]-NDP-αMSH
T8 construct: purchased Perkin Elmer Biosignal
Summary of the method: as §1

Human melanocortin (MC5) = molecular target: T9, Human melanocortin (MC5) (Homo sapiens, UniProt P33032); test: Radioligand binding, human melanocortin MC5 membranes, FlashPlate, [125I]-NDP-αMSH
T9 construct: purchased Perkin Elmer Biosignal
Summary of the method: as §1

Human δ-opioid (DOP) = molecular target: T10, Human δ-opioid (DOP) (Homo sapiens, UniProt P41143); test: Radioligand binding, human δ-opioid (DOP) membranes, FlashPlate, [3H]-Bremazocine
T10 construct: purchased Perkin Elmer Biosignal
Summary of the method: as §1

Human neurokinin (NK1) = molecular target: T11, Human neurokinin (NK1) (Homo sapiens, UniProt P25103); test: Radioligand binding, human neurokinin NK1 membranes, filtration, [125I]-Substance P
T11 construct: purchased Perkin Elmer Biosignal
Summary of the method: as §2

T10 sequence (P41143 whole entry): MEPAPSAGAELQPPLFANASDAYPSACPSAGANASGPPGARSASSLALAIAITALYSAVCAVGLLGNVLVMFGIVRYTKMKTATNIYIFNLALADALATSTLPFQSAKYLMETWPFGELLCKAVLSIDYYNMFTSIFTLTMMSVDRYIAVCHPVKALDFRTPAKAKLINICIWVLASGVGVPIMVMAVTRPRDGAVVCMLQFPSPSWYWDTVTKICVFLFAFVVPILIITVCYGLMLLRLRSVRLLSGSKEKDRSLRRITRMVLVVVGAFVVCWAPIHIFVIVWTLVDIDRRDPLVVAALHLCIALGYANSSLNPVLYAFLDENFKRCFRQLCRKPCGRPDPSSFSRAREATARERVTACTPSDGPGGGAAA
T5 sequence (P41146 whole entry): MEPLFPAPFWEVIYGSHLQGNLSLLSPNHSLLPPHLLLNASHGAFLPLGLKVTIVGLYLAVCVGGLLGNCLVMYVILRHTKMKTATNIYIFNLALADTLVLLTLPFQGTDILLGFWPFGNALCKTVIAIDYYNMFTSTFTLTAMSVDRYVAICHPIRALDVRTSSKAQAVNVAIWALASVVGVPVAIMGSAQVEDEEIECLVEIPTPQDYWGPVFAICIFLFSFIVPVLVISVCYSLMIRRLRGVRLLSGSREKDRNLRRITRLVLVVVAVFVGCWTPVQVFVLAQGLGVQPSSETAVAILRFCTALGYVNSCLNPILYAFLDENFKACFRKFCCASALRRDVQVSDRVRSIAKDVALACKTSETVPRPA
T7 sequence (P35372 whole entry): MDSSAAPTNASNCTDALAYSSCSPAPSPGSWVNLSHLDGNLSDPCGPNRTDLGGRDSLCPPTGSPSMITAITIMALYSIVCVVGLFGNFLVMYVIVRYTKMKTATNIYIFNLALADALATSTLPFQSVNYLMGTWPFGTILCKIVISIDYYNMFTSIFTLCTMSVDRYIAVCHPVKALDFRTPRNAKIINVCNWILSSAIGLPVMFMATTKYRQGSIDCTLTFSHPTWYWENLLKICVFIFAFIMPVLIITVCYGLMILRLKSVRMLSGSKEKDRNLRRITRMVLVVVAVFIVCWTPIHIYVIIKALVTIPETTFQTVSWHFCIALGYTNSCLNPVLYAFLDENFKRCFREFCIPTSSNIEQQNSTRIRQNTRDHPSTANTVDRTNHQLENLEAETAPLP
T9 sequence (P33032 whole entry): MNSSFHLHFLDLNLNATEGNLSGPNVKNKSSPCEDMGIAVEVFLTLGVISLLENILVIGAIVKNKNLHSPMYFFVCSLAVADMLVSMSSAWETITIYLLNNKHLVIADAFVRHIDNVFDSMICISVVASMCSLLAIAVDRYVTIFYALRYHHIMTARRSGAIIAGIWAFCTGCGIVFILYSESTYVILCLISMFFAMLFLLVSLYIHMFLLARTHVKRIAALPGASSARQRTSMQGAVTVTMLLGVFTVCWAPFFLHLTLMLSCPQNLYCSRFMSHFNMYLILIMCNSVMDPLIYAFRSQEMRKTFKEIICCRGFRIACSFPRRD
T11 sequence (P25103 whole entry): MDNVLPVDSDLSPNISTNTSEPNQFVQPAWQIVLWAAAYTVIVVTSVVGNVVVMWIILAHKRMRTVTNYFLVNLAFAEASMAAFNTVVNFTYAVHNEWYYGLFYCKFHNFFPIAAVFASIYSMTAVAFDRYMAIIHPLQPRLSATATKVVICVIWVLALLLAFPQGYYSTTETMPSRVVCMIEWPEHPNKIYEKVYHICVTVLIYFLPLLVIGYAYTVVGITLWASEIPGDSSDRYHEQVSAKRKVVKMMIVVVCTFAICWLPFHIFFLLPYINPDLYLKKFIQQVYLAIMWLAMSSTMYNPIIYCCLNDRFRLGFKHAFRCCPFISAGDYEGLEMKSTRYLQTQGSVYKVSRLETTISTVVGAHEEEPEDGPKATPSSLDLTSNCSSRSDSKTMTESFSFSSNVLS
T3 sequence (P41145 whole entry): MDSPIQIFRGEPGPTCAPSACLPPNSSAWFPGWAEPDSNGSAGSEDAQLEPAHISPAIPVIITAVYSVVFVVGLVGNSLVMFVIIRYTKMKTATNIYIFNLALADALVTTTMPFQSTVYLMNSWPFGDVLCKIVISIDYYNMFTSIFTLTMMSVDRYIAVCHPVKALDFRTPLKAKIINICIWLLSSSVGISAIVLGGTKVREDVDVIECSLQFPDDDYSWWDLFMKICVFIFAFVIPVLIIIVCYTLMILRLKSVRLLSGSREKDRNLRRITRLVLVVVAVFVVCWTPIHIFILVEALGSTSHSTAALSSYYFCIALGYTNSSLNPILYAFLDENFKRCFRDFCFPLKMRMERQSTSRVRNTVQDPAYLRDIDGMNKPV
T8 sequence (P41968 whole entry): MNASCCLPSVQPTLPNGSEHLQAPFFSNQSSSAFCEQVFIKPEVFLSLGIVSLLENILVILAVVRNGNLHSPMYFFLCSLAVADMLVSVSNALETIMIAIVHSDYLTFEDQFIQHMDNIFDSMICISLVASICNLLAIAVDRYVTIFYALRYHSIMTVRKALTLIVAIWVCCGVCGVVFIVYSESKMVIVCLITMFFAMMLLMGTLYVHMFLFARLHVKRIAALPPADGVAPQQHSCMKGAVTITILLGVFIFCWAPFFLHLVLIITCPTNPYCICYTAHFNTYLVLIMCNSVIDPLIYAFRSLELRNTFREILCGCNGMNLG
T1 sequence (Q99705 whole entry): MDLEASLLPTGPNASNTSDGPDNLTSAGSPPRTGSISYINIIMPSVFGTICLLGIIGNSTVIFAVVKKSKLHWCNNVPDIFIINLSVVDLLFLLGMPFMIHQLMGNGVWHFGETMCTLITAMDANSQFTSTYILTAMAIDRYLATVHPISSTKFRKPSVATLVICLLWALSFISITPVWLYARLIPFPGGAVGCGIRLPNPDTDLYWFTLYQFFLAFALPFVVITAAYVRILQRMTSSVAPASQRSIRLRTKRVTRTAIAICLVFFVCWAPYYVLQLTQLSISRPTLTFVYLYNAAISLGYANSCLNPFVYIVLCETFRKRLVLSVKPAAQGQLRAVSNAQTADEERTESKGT
T4 sequence (P32245 whole entry): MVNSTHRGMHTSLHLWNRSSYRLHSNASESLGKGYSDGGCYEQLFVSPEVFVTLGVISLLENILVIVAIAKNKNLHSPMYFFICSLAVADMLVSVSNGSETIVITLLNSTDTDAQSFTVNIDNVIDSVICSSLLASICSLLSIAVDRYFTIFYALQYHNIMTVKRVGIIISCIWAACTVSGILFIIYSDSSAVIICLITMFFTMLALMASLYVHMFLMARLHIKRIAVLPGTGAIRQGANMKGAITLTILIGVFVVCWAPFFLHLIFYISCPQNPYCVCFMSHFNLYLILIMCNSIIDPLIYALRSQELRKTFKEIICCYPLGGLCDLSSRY

N=C(N)NCCCC(=O)NC1COC(COCc2ccc(Cl)cc2)C(O)C1OCc1ccc(Cl)cc1 (stereo not shown) [compound 542]
A6: inhibition of radioligand binding, human melanin-concentrating hormone (MCH1) ([1]; [125I]-S36057): − (“−” indicates less than 50% inhibition at 10 μM)
A9: inhibition of radioligand binding, human neuropeptide Y (NPY-Y1) ([2]; [125I]-PYY): − (“−” indicates less than 50% inhibition at 10 μM)
A2: inhibition of radioligand binding, human κ-opioid (KOP) (Human κ-Opioid (KOP); [3H]-Diprenorphine): − (“−” indicates less than 50% inhibition at 10 μM)
A4: inhibition of radioligand binding, human melanocortin (MC4) (Human Melanocortin (MC4); [125I]-NDP-αMSH): − (“−” indicates less than 50% inhibition at 10 μM)
A10: inhibition of radioligand binding, human opioid (ORL1) (Human opioid (ORL1); [125I]-Nociceptin): − (“−” indicates less than 50% inhibition at 10 μM)
A11: inhibition of radioligand binding, mouse urotensin (mUR2) (Mouse urotensin (mUR2); [125I]-Urotensin II): − (“−” indicates less than 50% inhibition at 10 μM)
A7: inhibition of radioligand binding, human μ-opioid (MOP) (Human μ-opioid (MOP); [3H]-Naloxone): − (“−” indicates less than 50% inhibition at 10 μM)
A3: inhibition of radioligand binding, human melanocortin (MC3) (Human Melanocortin (MC3); [125I]-NDP-αMSH): − (“−” indicates less than 50% inhibition at 10 μM)
A5: inhibition of radioligand binding, human melanocortin (MC5) (Human melanocortin (MC5); [125I]-NDP-αMSH): − (“−” indicates less than 50% inhibition at 10 μM)
A1: inhibition of radioligand binding, human δ-opioid (DOP) (Human δ-opioid (DOP); [3H]-Bremazocine): − (“−” indicates less than 50% inhibition at 10 μM)
A8: inhibition of radioligand binding, human neurokinin (NK1) (Human neurokinin (NK1); [125I]-Substance P): + (“+” indicates greater than 50% inhibition at 10 μM)

CSC1O[C@H](COCc2ccc3ccccc3c2)[C@@H](O)[C@@H](OCc2ccc(Cl)cc2)[C@H]1NC(=O)CN (stereo partly shown) [compound 280]
A6: inhibition of radioligand binding ([1]; [125I]-S36057, FlashPlate): − (“−” indicates less than 50% inhibition at 10 μM)
A9: inhibition of radioligand binding ([2]; [125I]-PYY, FlashPlate): − (“−” indicates less than 50% inhibition at 10 μM)
A2: inhibition of radioligand binding (Human κ-Opioid (KOP); [3H]-Diprenorphine, filtration): − (“−” indicates less than 50% inhibition at 10 μM)
A4: inhibition of radioligand binding (Human Melanocortin (MC4); [125I]-NDP-αMSH, FlashPlate): − (“−” indicates less than 50% inhibition at 10 μM)
A10: inhibition of radioligand binding (Human opioid (ORL1); [125I]-Nociceptin, FlashPlate): − (“−” indicates less than 50% inhibition at 10 μM)
A11: inhibition of radioligand binding (Mouse urotensin (mUR2); [125I]-Urotensin II, FlashPlate): − (“−” indicates less than 50% inhibition at 10 μM)
A7: inhibition of radioligand binding (Human μ-opioid (MOP); [3H]-Naloxone, FlashPlate): − (“−” indicates less than 50% inhibition at 10 μM)
A3: inhibition of radioligand binding (Human Melanocortin (MC3); [125I]-NDP-αMSH, FlashPlate): − (“−” indicates less than 50% inhibition at 10 μM)
A5: inhibition of radioligand binding (Human melanocortin (MC5); [125I]-NDP-αMSH, FlashPlate): − (“−” indicates less than 50% inhibition at 10 μM)
A1: inhibition of radioligand binding (Human δ-opioid (DOP); [3H]-Bremazocine, FlashPlate): − (“−” indicates less than 50% inhibition at 10 μM)
A8: inhibition of radioligand binding (Human neurokinin (NK1); [125I]-Substance P, filtration): + (“+” indicates greater than 50% inhibition at 10 μM)

CO[C@H]1[C@H](O)[C@@H](COCc2ccccc2)OC(OCc2ccc3ccccc3c2)[C@@H]1NC(=O)CCNC(=N)N (stereo partly shown) [compound 75]
A6 radioligand binding inhibition ([1]; human MCH1 membranes): − (“−” indicates less than 50% inhibition at 10 μM)
A9 radioligand binding inhibition ([2]; human NPY-Y1 membranes): − (“−” indicates less than 50% inhibition at 10 μM)
A2 radioligand binding inhibition (Human κ-Opioid (KOP); human κ-opioid (KOP) membranes): − (“−” indicates less than 50% inhibition at 10 μM)
A4 radioligand binding inhibition (Human Melanocortin (MC4); human melanocortin MC4 membranes): − (“−” indicates less than 50% inhibition at 10 μM)
A10 radioligand binding inhibition (Human opioid (ORL1); human ORL1 membranes): − (“−” indicates less than 50% inhibition at 10 μM)
A11 radioligand binding inhibition (Mouse urotensin (mUR2); mouse urotensin mUR2 membranes): − (“−” indicates less than 50% inhibition at 10 μM)
A7 radioligand binding inhibition (Human μ-opioid (MOP); human μ-opioid (MOP) membranes): + (“+” indicates greater than 50% inhibition at 10 μM)
A3 radioligand binding inhibition (Human Melanocortin (MC3); human melanocortin MC3 membranes): − (“−” indicates less than 50% inhibition at 10 μM)
A5 radioligand binding inhibition (Human melanocortin (MC5); human melanocortin MC5 membranes): − (“−” indicates less than 50% inhibition at 10 μM)
A1 radioligand binding inhibition (Human δ-opioid (DOP); human δ-opioid (DOP) membranes): − (“−” indicates less than 50% inhibition at 10 μM)
A8 radioligand binding inhibition (Human neurokinin (NK1); human neurokinin NK1 membranes): + (“+” indicates greater than 50% inhibition at 10 μM)

COCC1OC(OCc2ccccc2)C(NC(=O)CCNC(=N)N)C(OCc2ccc(-c3ccccc3)cc2)C1O (stereo not shown) [compound 185]
A6 radioligand binding, percentage inhibition ([1]; [125I]-S36057): + (“+” indicates greater than 50% inhibition at 10 μM)
A9 radioligand binding, percentage inhibition ([2]; [125I]-PYY): − (“−” indicates less than 50% inhibition at 10 μM)
A2 radioligand binding, percentage inhibition (Human κ-Opioid (KOP); [3H]-Diprenorphine): − (“−” indicates less than 50% inhibition at 10 μM)
A4 radioligand binding, percentage inhibition (Human Melanocortin (MC4); [125I]-NDP-αMSH): + (“+” indicates greater than 50% inhibition at 10 μM)
A10 radioligand binding, percentage inhibition (Human opioid (ORL1); [125I]-Nociceptin): − (“−” indicates less than 50% inhibition at 10 μM)
A11 radioligand binding, percentage inhibition (Mouse urotensin (mUR2); [125I]-Urotensin II): − (“−” indicates less than 50% inhibition at 10 μM)
A7 radioligand binding, percentage inhibition (Human μ-opioid (MOP); [3H]-Naloxone): − (“−” indicates less than 50% inhibition at 10 μM)
A3 radioligand binding, percentage inhibition (Human Melanocortin (MC3); [125I]-NDP-αMSH): − (“−” indicates less than 50% inhibition at 10 μM)
A5 radioligand binding, percentage inhibition (Human melanocortin (MC5); [125I]-NDP-αMSH): + (“+” indicates greater than 50% inhibition at 10 μM)
A1 radioligand binding, percentage inhibition (Human δ-opioid (DOP); [3H]-Bremazocine): − (“−” indicates less than 50% inhibition at 10 μM)
A8 radioligand binding, percentage inhibition (Human neurokinin (NK1); [125I]-Substance P): + (“+” indicates greater than 50% inhibition at 10 μM)

CSC1O[C@H](COCc2ccccc2)[C@@H](O)[C@@H](OCc2ccc(-c3ccccc3)cc2)[C@H]1NC(=O)CCCNC(=N)N (stereo partly shown) [compound 287]
A6: inhibition of radioligand binding, human melanin-concentrating hormone (MCH1) ([1]; [125I]-S36057): − (“−” indicates less than 50% inhibition at 10 μM)
A9: inhibition of radioligand binding, human neuropeptide Y (NPY-Y1) ([2]; [125I]-PYY): − (“−” indicates less than 50% inhibition at 10 μM)
A2: inhibition of radioligand binding, human κ-opioid (KOP) (Human κ-Opioid (KOP); [3H]-Diprenorphine): − (“−” indicates less than 50% inhibition at 10 μM)
A4: inhibition of radioligand binding, human melanocortin (MC4) (Human Melanocortin (MC4); [125I]-NDP-αMSH): − (“−” indicates less than 50% inhibition at 10 μM)
A10: inhibition of radioligand binding, human opioid (ORL1) (Human opioid (ORL1); [125I]-Nociceptin): − (“−” indicates less than 50% inhibition at 10 μM)
A11: inhibition of radioligand binding, mouse urotensin (mUR2) (Mouse urotensin (mUR2); [125I]-Urotensin II): − (“−” indicates less than 50% inhibition at 10 μM)
A7: inhibition of radioligand binding, human μ-opioid (MOP) (Human μ-opioid (MOP); [3H]-Naloxone): − (“−” indicates less than 50% inhibition at 10 μM)
A3: inhibition of radioligand binding, human melanocortin (MC3) (Human Melanocortin (MC3); [125I]-NDP-αMSH): − (“−” indicates less than 50% inhibition at 10 μM)
A5: inhibition of radioligand binding, human melanocortin (MC5) (Human melanocortin (MC5); [125I]-NDP-αMSH): − (“−” indicates less than 50% inhibition at 10 μM)
A1: inhibition of radioligand binding, human δ-opioid (DOP) (Human δ-opioid (DOP); [3H]-Bremazocine): − (“−” indicates less than 50% inhibition at 10 μM)
A8: inhibition of radioligand binding, human neurokinin (NK1) (Human neurokinin (NK1); [125I]-Substance P): + (“+” indicates greater than 50% inhibition at 10 μM)
